Test results reported in patent US12435101B2, “Isochroman compound” (Zhejiang Yangli Pharmaceutical Technology Co., Ltd., priority 2020, dated 2025).

Test system: NCI-H460 cells
Assay: Antiproliferative activity on NCI-H460 cell line (CellTiter-Glo)
Assay type: cell-based
Conditions: Homo sapiens; NCI-H460 (lung cancer, high AKR1C3); 2 hours with drug, then 70 hours drug-free
Experimental: RPMI-1640 medium and penicillin/streptomycin antibiotics were purchased from Vicente, and fetal bovine serum was purchased from Biosera. CellTiter-Glo (Cell Viability Chemiluminescence Detection Reagent) reagent was purchased from Promega. The NCI-H460 cell line was purchased from Nanjing Kebai Biotechnology Co., Ltd. Nivo Multimode Plate Reader (PerkinElmer).
NCI-H460 cells (lung cancer) were seeded in a 96-well plate, 80 μL of cell suspension per well, which contained 4000 NCI-H460 cells. The cell plate was incubated overnight in a carbon dioxide incubator. The compound to be tested was diluted 5-fold to the ninth concentration with a multi-channel pipette, that is, the compound to be tested was diluted from 2 mM to 5.2 nM, and an experiment for the sample assayed in duplicate was set up. 78 μL of medium was added to the middle plate, and 2 μL of the gradient-diluted compound per well was transferred to the middle plate according to the corresponding position, then 20 μL per well was transferred to the cell plate after mixing. […] Another cell plate was prepared, and the signal value was read as the maximum value (Max value in the following equation) on the day of drug addition to participate in data analysis. […] The multimode plate reader was used for readings. […]. […]

Compound	IC50 [nM]
O=[N+]([O-])c1cc2c(cc1Oc1cccnc1F)C(OP(=O)(N1CC1)N1CC1)COC2 (centres unmarked) [Compound 1]	3.8
O=[N+]([O-])c1cc2c(cc1Oc1ccccc1F)C(OP(=O)(N1CC1)N1CC1)COC2 (centres unmarked) [Compound 2]	21.6
